Experimental findings from BindingDB's records for doi:10.1021/jm00213a022 (Sichuan University, 2021) are described below.

Experiment [1] deals with T1, Proteasome subunit beta type-5 (Homo sapiens, UniProt P28074).
T1 sequence (P28074 whole entry): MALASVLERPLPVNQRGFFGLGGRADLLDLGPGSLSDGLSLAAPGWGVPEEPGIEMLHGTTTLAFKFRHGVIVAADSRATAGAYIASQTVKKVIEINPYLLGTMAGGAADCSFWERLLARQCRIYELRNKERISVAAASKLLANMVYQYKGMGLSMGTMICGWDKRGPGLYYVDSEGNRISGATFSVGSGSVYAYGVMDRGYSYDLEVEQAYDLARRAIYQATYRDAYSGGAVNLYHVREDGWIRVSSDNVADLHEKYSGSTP
Briefly: Inhibition of beta5 proteasome (unknown origin).

Experiment [2] concerns the target ATP-dependent Clp protease proteolytic subunit, mitochondrial (Homo sapiens, UniProt Q16740). Description: Agonist activity at human recombinant CLpP (57 to 277 amino acids) expressed in Escherichia coli using fluorogenic peptide AC-WLA-AMC as substrate incubated for 10 mins by fluorescence based assay.
Experiment [3] concerns the target 72 kDa type IV collagenase (Homo sapiens, UniProt P08253). Description: Inhibition of MMP-2 (unknown origin).
The target in experiment [4] is Matrix metalloproteinase-9 (Homo sapiens, UniProt P14780). Description: Inhibition of MMP-9 (unknown origin).
In experiment [5] the target is T2, Procathepsin L (Homo sapiens, UniProt P07711). Briefly: Binding affinity to Cathepsin L (unknown origin) assessed as inhibition constant.
Another experiment addresses T3, Cathepsin K (Homo sapiens, UniProt P43235).
T3 sequence (P43235 whole entry): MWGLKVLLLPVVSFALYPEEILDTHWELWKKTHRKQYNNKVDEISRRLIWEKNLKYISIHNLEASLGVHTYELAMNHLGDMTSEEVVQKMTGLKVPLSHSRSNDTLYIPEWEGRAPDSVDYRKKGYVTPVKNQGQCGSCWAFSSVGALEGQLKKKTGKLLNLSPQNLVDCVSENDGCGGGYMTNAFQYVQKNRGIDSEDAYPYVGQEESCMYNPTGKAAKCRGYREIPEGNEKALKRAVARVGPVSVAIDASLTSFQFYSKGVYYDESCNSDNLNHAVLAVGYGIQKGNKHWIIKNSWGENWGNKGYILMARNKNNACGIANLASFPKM
Briefly: Inhibition of human cathepsin K.

The target in experiment [6] is T2, Procathepsin L. Description: Inhibition of human cathepsin L.
For experiment [7], the target named is T4, Proteasome subunit beta type-7 (Homo sapiens, UniProt Q99436).
T4 sequence (Q99436 whole entry): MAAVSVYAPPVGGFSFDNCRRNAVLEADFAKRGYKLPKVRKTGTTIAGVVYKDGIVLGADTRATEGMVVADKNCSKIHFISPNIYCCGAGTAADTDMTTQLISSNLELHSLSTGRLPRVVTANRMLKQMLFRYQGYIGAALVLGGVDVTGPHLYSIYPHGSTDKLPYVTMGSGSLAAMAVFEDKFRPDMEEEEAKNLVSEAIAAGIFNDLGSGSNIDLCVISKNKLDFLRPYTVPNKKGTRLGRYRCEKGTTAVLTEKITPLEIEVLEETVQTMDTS
Description: Inhibition of beta2 proteasome (unknown origin).

Experiment [8] deals with T5, Proteasome subunit beta type-1 (Homo sapiens, UniProt P20618).
T5 sequence (P20618 whole entry): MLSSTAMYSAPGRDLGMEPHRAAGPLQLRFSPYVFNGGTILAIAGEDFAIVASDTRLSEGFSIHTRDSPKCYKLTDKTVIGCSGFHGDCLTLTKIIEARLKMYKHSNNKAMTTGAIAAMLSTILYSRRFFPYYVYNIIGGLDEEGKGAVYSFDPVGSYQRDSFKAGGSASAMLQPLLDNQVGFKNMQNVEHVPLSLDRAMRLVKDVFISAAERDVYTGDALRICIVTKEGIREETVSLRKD
Description: Inhibition of beta 1 proteasome (unknown origin).

Structures are written as SMILES. Peptide text beside a SMILES is read from it. * marks the point of attachment. Cbz = O=C(OCc1ccccc1)*

Sequence of Matrix metalloproteinase-9 (P14780 whole entry): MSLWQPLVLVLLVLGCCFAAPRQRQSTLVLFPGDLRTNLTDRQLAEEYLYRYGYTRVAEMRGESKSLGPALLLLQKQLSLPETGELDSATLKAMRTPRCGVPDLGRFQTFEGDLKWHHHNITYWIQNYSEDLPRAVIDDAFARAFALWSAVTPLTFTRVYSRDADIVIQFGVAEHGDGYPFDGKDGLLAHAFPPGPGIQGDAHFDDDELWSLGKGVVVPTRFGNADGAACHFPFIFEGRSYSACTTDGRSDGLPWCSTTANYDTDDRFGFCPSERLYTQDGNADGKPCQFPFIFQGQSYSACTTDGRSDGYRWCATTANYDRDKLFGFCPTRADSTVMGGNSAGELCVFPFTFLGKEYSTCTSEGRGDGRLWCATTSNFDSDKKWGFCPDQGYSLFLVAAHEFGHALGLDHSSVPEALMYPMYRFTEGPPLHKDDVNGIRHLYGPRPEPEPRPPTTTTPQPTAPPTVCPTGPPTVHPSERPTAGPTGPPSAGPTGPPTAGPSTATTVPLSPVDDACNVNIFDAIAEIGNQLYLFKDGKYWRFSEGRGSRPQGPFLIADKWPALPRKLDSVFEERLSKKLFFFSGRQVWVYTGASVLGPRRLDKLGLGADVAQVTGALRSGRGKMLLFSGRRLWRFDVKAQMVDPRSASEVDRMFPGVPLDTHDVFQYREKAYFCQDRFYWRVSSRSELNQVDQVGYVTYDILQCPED
Sequence of ATP-dependent Clp protease proteolytic subunit, mitochondrial (Q16740 whole entry, the tested form may be a part): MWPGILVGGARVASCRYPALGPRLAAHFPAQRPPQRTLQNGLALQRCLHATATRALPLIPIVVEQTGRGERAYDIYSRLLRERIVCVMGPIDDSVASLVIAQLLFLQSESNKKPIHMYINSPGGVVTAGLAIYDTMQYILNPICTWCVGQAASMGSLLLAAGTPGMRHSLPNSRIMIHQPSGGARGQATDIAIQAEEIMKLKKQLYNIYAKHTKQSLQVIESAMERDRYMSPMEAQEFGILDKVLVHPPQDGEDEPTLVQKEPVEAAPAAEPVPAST
Sequence of 72 kDa type IV collagenase (P08253 whole entry): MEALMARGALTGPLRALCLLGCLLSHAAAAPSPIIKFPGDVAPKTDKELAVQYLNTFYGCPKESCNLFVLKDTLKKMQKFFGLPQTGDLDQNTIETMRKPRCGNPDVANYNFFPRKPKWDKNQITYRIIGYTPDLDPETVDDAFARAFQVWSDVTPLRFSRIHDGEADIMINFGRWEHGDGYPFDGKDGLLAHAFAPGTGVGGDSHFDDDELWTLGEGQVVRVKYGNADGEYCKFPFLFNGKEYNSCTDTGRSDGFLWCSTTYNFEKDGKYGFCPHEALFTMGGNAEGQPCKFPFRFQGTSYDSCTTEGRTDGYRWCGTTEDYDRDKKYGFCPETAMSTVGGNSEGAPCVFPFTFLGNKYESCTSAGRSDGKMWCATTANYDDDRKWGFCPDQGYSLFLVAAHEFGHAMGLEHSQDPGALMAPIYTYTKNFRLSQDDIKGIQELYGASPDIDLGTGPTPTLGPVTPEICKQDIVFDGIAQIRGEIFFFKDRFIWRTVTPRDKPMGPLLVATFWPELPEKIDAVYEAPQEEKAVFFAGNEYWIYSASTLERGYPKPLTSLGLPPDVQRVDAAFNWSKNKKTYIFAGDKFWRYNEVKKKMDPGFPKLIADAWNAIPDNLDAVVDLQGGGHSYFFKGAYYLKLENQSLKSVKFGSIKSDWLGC
T2 sequence (P07711 whole entry): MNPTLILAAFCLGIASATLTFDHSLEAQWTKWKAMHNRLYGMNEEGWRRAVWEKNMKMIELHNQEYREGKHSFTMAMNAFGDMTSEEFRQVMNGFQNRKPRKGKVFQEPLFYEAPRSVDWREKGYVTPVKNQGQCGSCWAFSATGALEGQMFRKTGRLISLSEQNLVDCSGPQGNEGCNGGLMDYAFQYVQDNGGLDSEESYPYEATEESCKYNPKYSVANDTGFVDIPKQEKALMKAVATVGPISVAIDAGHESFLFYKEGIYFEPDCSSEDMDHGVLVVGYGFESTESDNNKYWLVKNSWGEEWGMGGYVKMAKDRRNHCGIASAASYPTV

`CC(C)[C@H](O)C12NC(=O)[C@H](C)[C@@H]1OC2=O` (some centres not stated): the half-inhibitory concentration (IC50) (usually the concentration needed to halve the response being measured) in experiment [1] is 47 nM.

Consider `Cc1cccc(CN2CCc3c(c(=O)n(Cc4ccc(C(F)(F)F)cc4)c(=O)n3CCCN)C2)c1`, for which the EC50 in experiment [2] was found to be 120 nM.

With `CC(C)N1CCN(C2(c3ccc(Oc4ccc(Br)cc4)cc3)C(=O)NC(=O)NC2=O)CC1` [5-[4-(4-Bromo-phenoxy)-phenyl]-5-(4-isopropyl-piperazin-1-yl)-pyrimidine-2,4,6-trione], the IC50 in experiment [3] came out at 26 nM; in [4], 1 nM.

Turning to `CC(C)C[C@H](NC(=O)OC(C)(C)C)C(=O)N1C[C@H]1C(=O)N1[C@H](C(=O)OCc2ccccc2)[C@@H]1C(=O)OCc1ccccc1`, the Ki (commonly the equilibrium dissociation constant of an inhibitor or competing ligand from its target) on Procathepsin L [5] was 13 nM.

Take `COc1ccc(S(=O)(=O)N(Cc2cccnc2)[C@@H](CCF)C(=O)NO)cc1`: the IC50 in experiment [3] is 33 nM; in [4], 3 nM.

With `N#Cc1cccc(CN2CCC3=C(C2)C(=O)N(Cc2ccc(Cl)cc2)C2=NCCN23)c1`, the EC50 in experiment [2] was determined as 120 nM.

Regarding `N#CN1CC(CNC(=O)C2CCCCC2)C1` [Cyclohexanecarboxylic acid (1-cyano-azetidin-3-ylmethyl)-amide], the IC50 against Cathepsin K came out at 5 nM; against Procathepsin L [6], 6 nM.

The molecule `CC(C)C[C@@H](C=O)NC(=O)[C@H](CC(C)C)NC(=O)[C@H](CC(C)C)NC(=O)OCc1ccccc1` [{1-[(S)-(S)-1-((S)-1-Formyl-3-methyl-butylcarbamoyl)-3-methyl-butylcarbamoyl]-3-methyl-butyl}-carbamic acid benzyl ester] (Cbz-Leu-Leu-Leu-aldehyde) registered an IC50 in [7] of 1080 nM.

With `CC(C)C[C@H](NC(=O)[C@@H](NC(=O)c1cccc(-c2ccccc2)n1)[C@@H](C)O)B(O)O` [(R)-1-((2S,3R)-3-hydroxy-2-(6-phenylpicolinamido)butanamido)-3-methylbutylboronic acid], it took 1.5 nM to reach half-maximal inhibition in experiment [1] (IC50).

As to `O=C(c1ccccc1)c1ccc(S(=O)(=O)CC(CCCc2ccccc2)C(=O)NO)cc1` (configuration not stated) [2-(4-Benzoyl-benzenesulfonylmethyl)-5-phenyl-pentanoic acid hydroxyamide], the IC50 in experiment [3] is 4 nM; in experiment [4], 5 nM.

`Cn1c2c(c(=O)n(Cc3ccc(Cl)cc3)c1=O)CN(Cc1cccc(C#N)c1)CC2`: the EC50 in [2] came out at 135 nM.

Take `O=C1NC2([C@@H](O)[C@@H]3C=CCCC3)C(=O)O[C@H]2[C@H]1CCCl` (some centres not stated): the concentration for half-maximal inhibition (IC50) amounted to 33 nM in experiment [8], 8 nM in experiment [7] and 2.6 nM in experiment [1].

Consider `C#Cc1cccc(CN2CCC3=C(C2)C(=O)N(Cc2ccc(C)cc2)C2=NCCN23)c1`, for which the EC50 in [2] was 800 nM.

For the molecule `CCc1ccc(C#Cc2ccc(S(=O)(=O)N[C@H](C(=O)O)C(C)C)s2)cc1`, the values for the concentration for half-maximal inhibition (IC50) in experiment [3] and in [4] were 4.8 nM and 4.4 nM, respectively.

As to `N#Cc1cccc(CN2CCC3=C(C2)C(=O)N(Cc2ccc(C(F)(F)F)cc2)C2=NCCN23)c1`, in experiment [2], the EC50 was 120 nM.

`CC(C)C[C@H](NC(=O)CNC(=O)c1cc(Cl)ccc1Cl)B(O)O` returned an IC50 in experiment [7] of 3500 nM.

Regarding `COc1ccc(-c2ccc(S(=O)(=O)N(OC(C)C)[C@H](CCC3C(=O)c4ccccc4C3=O)C(=O)NO)cc2)cc1`, the IC50 is 0.67 nM in experiment [3] and 0.43 nM in [4].

In the case of `CCN([C@@H](C(=O)O)C(C)C)S(=O)(=O)c1ccc(-c2nc(-c3ccc(C)s3)no2)cc1`, the concentration for half-maximal inhibition (IC50) in [3] amounted to 3.7 nM; in experiment [4], 36 nM.
